The record followed here is the METLIN SMRT retention time set (Domingo-Almenara et al. 2019).

This series in a line: gradient 5% acetonitrile 3 min, to 50% in 2 min, to 85% in 15 min, held 3 min, 100 µL/min. Particulars: column: Zorbax Extend-C18 2.1 x 50 mm; eluents: water / acetonitrile, 0.1% formic acid. The procedure, abridged:
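Pure standards were analyzed in mixtures of ~100 molecules using HPLC coupled to a quadrupole time-of-flight mass spectrometer, in both positive and negative ionization mode. Separation used a Zorbax Extend-C18 column (2.1 × 50 mm, 1.8 μm) at 100 μL/min, with water and acetonitrile each containing 0.1% formic acid. Dead and dwell volumes were 40 μL and 900 μL, and data were collected over 3 months. Retention time was read from computationally picked adduct peaks, each inspected manually.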
For `CC(C)N1C(=O)c2cccnc2Sc2cc(NC(=O)c3cccc(F)c3)ccc21`, the RP-LC retention time is 901 s.

With `CC1CCN(S(=O)(=O)c2ccc(-c3nnc(C(=O)NCCc4ccc(Cl)cc4)o3)cc2)CC1`, the RP-LC retention time turned out to be 1160 s.

Compound `O=C(NCc1ccccc1)Nc1cnc2c(c1)CCC2` yielded an RP-LC retention time of 557 s.

Turning to `Cc1ccn2c(NC(=O)CCc3ccccc3)c(-c3ccc(F)cc3)nc2c1`, the RP-LC retention time is 703 s.

With `Fc1ccc(Nc2nc(-c3ccccc3)cs2)cc1`, the RP-LC retention time is 1120 s.

Regarding `Cc1ccc(-n2nnc(-c3nc(C)c(C(=O)N4CCC(C(N)=O)CC4)s3)c2C)cc1C`, the RP-LC retention time was found to be 742 s.

As for `CCc1nc2cc(N3CCCC(C(=O)NCCN4CCCC4)C3)cnc2nc1CC` (stereo unspecified), the RP-LC retention time amounted to 601 s.

`COCCCNC(=O)C1(C)CCC(=O)N1CCc1c[nH]c2ccccc12` (stereo unspecified) displayed an RP-LC retention time of 668 s.

`Cc1nc2cc(-c3noc(-c4ccc(C(F)(F)F)cc4)n3)ccc2n(C)c1=O` returned an RP-LC retention time of 1180 s.

With `CCN1C(=O)COc2ccc(-c3noc(/C=C/c4ccccc4)n3)cc21`, the RP-LC retention time worked out at 1170 s.

In the case of `O=C(NCc1ccccc1F)C1CCN(c2cncnc2N2CCOCC2)CC1`, the RP-LC retention time stood at 611 s.

In the case of `COc1cccc(-n2c(=O)c(C(=O)NCc3cccs3)c(O)c3cccnc32)c1`, the RP-LC retention time is 1170 s.

Take `COC(=O)c1cccc(NC(=O)NC2CCN(c3ccccc3)C2=O)c1` (stereo unspecified): the RP-LC retention time came to 769 s.

With `Cc1ccc(-c2nnc(-c3nc(NCCC4=CCCCC4)c4ccccc4n3)o2)cc1`, the RP-LC retention time is 1300 s.

In turn, `CCN1CCCC1CNC(=O)C1c2cc(OC)c(OC)cc2C(=O)N(C)C1c1ccc(OC)cc1` (stereo unspecified) returned an RP-LC retention time of 611 s.

In the case of `O=C(c1ccc(OCC2CCN(C(=O)c3ccco3)CC2)cc1)N1CCOCC1`, the RP-LC retention time is 718 s.

The compound `COc1cccc(NC(=O)Nc2cccc(-c3ccc(N4CCOCC4)nn3)c2)c1` came in with an RP-LC retention time of 672 s.

`CC(=O)c1cccc(NS(=O)(=O)c2ccc(F)c(Cl)c2)c1` gave an RP-LC retention time of 839 s.

`CCN(Cc1cc(Nc2nc(C)cn3c(-c4cn[nH]c4)cnc23)sn1)C(C)(C)CO`: the RP-LC retention time came out at 682 s.

`CO[C@H]1C(=O)N(C(C)C)[C@H]1C1CCN(C(=O)CN2C(=O)CCC2=O)CC1`: the RP-LC retention time worked out at 607 s.

The compound `O=C(NCc1cc(F)ccc1F)C1CCCN(c2cnc3nccnc3c2)C1` (stereo unspecified) displayed an RP-LC retention time of 715 s.

Consider `COc1ccc(N2CCN(c3ncccc3-c3nc(-c4ccc(Cl)cc4)no3)CC2)cc1`, for which the RP-LC retention time came out at 1230 s.

In the case of `CN(C)C(=O)c1cc2c(s1)CCC(C(=O)NCCc1ccncc1)C2` (stereo unspecified), the RP-LC retention time is 563 s.

Compound `Cc1ccc(Nc2c(-c3ccccc3)nc3ccc(Cl)cn23)cc1` yielded an RP-LC retention time of 787 s.

For `COc1ccccc1OCc1nn2c(-c3ccccn3)nnc2s1`, the RP-LC retention time was found to be 740 s.

The compound `O=C(c1cc(S(=O)(=O)N2CCCC(C(=O)N3CCOCC3)C2)c[nH]1)N1CCCC1` (stereo unspecified) returned an RP-LC retention time of 638 s.

With `COC(=O)c1c(-c2ccccc2)noc1NCc1cccc(OC)c1`, the RP-LC retention time was 677 s.

Compound `O=C(NCC(O)(c1ccccc1)C(F)(F)F)NC1CCCCC1` (stereo unspecified) returned an RP-LC retention time of 879 s.

The compound `CCOc1ccc(-c2noc(Cc3nnc(-c4cc(F)cc(F)c4)o3)n2)cc1` showed an RP-LC retention time of 1100 s.

Take `COc1ccc(C(O)CN2CCN(c3ccc(C)cc3)CC2)cc1` (stereo unspecified): the RP-LC retention time stood at 663 s.

The compound `Cc1cc(Br)ccc1NC(=O)Cn1cnc(C)c(C)c1=O` registered an RP-LC retention time of 673 s.

The compound `CCn1cc(-c2nc(C(=O)Nc3ccc(OC)c(Cl)c3)cs2)c2cccnc21` registered an RP-LC retention time of 1110 s.

In turn, `CC(NC(=O)Cc1cccn1-c1ccc(Cl)cc1)c1cccnc1` (stereo unspecified) had an RP-LC retention time of 649 s.

Turning to `O=C(CCc1nnc2ccc(N3CCCCC3)nn12)N1CCN(c2ccccn2)CC1`, the RP-LC retention time is 597 s.

In turn, `CCS(=O)(=O)N1CC(=O)N(c2ccc(C)c(Cl)c2)C(C)(C(=O)NC2CCCCCC2)C1` (stereo unspecified) yielded an RP-LC retention time of 1010 s.

Turning to `CCOC(=O)COc1cc(-c2ccc(F)cc2)nc2ccc(NC(=O)COC)cc12`, the RP-LC retention time was 730 s.

Take `O=C(CC1CCN(C(=O)c2ccc3nc(-c4ccccc4)oc3c2)CC1)NCc1ccco1`: the RP-LC retention time came out at 789 s.

In turn, `COc1ccc(C(=O)NCc2c(C)noc2C)c(OC)c1` gave an RP-LC retention time of 693 s.

The compound `CC(C)CCNC(=O)c1c(OCC2CC2)cc(=O)n2c1CCCCC2` displayed an RP-LC retention time of 774 s.

Regarding `CC1=C(c2ccc(C)c(C)c2)S(=O)(=O)N=C1N1CCCN(C(=O)C2CC2)CC1`, the RP-LC retention time was determined as 793 s.

`Cc1cc(C)c2sc(N(Cc3cccnc3)C(=O)c3snnc3C)nc2c1` registered an RP-LC retention time of 823 s.

As to `CC1CCN(C(=O)CSCC(=O)Nc2nc(-c3ccc4c(c3)OCO4)cs2)CC1`, the RP-LC retention time amounted to 890 s.

`CCOc1nccnc1N1CCC(N(C)C(=O)c2ccc(C)nc2)C1` (stereo unspecified) gave an RP-LC retention time of 597 s.

Turning to `CCOC(=O)c1[nH]c(C)c(CCC(=O)N2CCC(C(=O)NCc3ccc(F)cc3)CC2)c1C`, the RP-LC retention time amounted to 785 s.

As for `COc1ccc(-c2nnc(Cc3nc(-c4ccc(C)cc4)no3)o2)cc1`, the RP-LC retention time is 1010 s.

`Cc1ccc(NC(=O)Cn2nc3c(N4CCSCC4)nccn3c2=O)cc1C` returned an RP-LC retention time of 839 s.

`Cn1c(C2CCN(S(C)(=O)=O)CC2)nn(Cc2ccc(Cl)c(Cl)c2)c1=O` registered an RP-LC retention time of 739 s.

With `CC(C)(C)c1noc(-c2ccc(-n3cnc(C(=O)NCC4CC4)c3)nc2)n1`, the RP-LC retention time was found to be 896 s.

`CCOc1ccccc1NC(=O)C1CCCN(c2nc3ccccc3nc2OC)C1` (stereo unspecified) returned an RP-LC retention time of 1220 s.

In turn, `CCn1c(C(=O)NCCCOC(C)C)cc2c(=O)oc3ccccc3c21` displayed an RP-LC retention time of 916 s.

Turning to `COc1cccc(N2C(=O)NC3CC2(C)Oc2ccc(OC)cc23)c1` (stereo unspecified), the RP-LC retention time is 787 s.

Compound `c1ccc(-c2nnc(-c3ccccn3)s2)nc1` came in with an RP-LC retention time of 850 s.

The compound `COC(=O)c1sc(-c2ccccc2)cc1NC(=O)c1ccccc1[N+](=O)[O-]` came in with an RP-LC retention time of 1110 s.

`CC(=O)N1CCc2cc(N3CC(C(=O)NCc4ccc(C(F)(F)F)cc4)CC3=O)ccc21` (stereo unspecified) returned an RP-LC retention time of 748 s.

For `Clc1ccc(-c2csc(Nc3ccccc3)n2)cc1Cl`, the RP-LC retention time was 1300 s.

Turning to `Cc1ccc(CS(=O)(=O)N2CCC(CN3CCCCCC3)CC2)cc1C`, the RP-LC retention time turned out to be 723 s.

`COc1ccc(Cl)c2c(=O)c3c([nH]c12)CCN(CC(=O)Nc1cccc(C)c1)C3` had an RP-LC retention time of 627 s.

In the case of `CCc1noc(NC(C)=O)c1-c1ccc(OC)c(S(=O)(=O)Nc2cccc(F)c2)c1`, the RP-LC retention time amounted to 794 s.

In turn, `Cc1cc(=O)n(CC(=O)NCc2ccc(F)c(Cl)c2)c(N)n1` showed an RP-LC retention time of 863 s.

On to `COc1ccc(C2CC(=O)c3cnc4c(c3C2)c(=O)n(C)c(=O)n4C)cc1` (stereo unspecified), for which the RP-LC retention time was 913 s.

Compound `CN(C)c1ccc(C(=O)NC2CCN(c3cc(-c4cccs4)[nH]n3)C2)cc1` (stereo unspecified) yielded an RP-LC retention time of 721 s.

`CCOc1cc(=O)c(C(=O)N2CCC(C(N)=O)CC2)nn1-c1ccc(OC)cc1` registered an RP-LC retention time of 609 s.

The compound `c1cc2c(cc1-c1noc(C3CCCCC3)n1)nnn2CCN1CCOCC1` showed an RP-LC retention time of 711 s.

Compound `Cc1ncsc1CN1CCCC(n2c(C)cnc2-c2ccncc2)C1` (stereo unspecified) returned an RP-LC retention time of 533 s.

`Cc1cccc(-c2nnc(C)c(N3CCOCC3)n2)c1` returned an RP-LC retention time of 645 s.

Turning to `COc1ccc2nc3oc(C(=O)NCCN4CCCCC4C)cc3cc2c1` (stereo unspecified), the RP-LC retention time worked out at 633 s.

`COc1ccc(-c2ccnc3nc(CCc4ccccc4)nn23)cc1OC` registered an RP-LC retention time of 879 s.

`CCSc1nnc(NC(=O)Cn2nc(-n3cccn3)ccc2=O)s1` returned an RP-LC retention time of 653 s.

`CC(C)NC(=O)N1CCC(OCc2ccccc2)C1` (stereo unspecified) returned an RP-LC retention time of 742 s.

`CC1CCN(S(=O)(=O)c2ccc3c(ccn3CCC(=O)N3CCN(c4ccccn4)CC3)c2)CC1` showed an RP-LC retention time of 728 s.

Turning to `O=C(NCCCn1ncccc1=O)c1ccccc1C(F)(F)F`, the RP-LC retention time turned out to be 635 s.

For the compound `Fc1ccccc1-c1noc(N2CCN(c3ccccn3)CC2)n1`, the RP-LC retention time worked out at 649 s.

Consider `O=C(Cn1cnc2nc3c(cc2c1=O)CCCC3)NCCCN1CCc2ccccc2C1`, for which the RP-LC retention time was 864 s.

`CC(C)CCNC(=O)C1CCCN(c2ncc(-c3ccc(F)cc3)cn2)C1` (stereo unspecified) had an RP-LC retention time of 1060 s.

Compound `CCn1ccc(NC(=O)NC(C)(C)C)n1` yielded an RP-LC retention time of 705 s.

In turn, `COC(=O)c1sc2ccccc2c1NC(=O)c1ccc([N+](=O)[O-])o1` had an RP-LC retention time of 871 s.

In turn, `CCc1ccc(C2=C(C)C(N3CCCN(C(=O)C4CC4)CC3)=NS2(=O)=O)cc1` registered an RP-LC retention time of 843 s.

With `O=C(Nc1c(Cl)cncc1Cl)c1ccc(OC(F)F)c(OCC2CC2)c1`, the RP-LC retention time worked out at 1020 s.

Regarding `COc1ccc(N2C=C(C#N)S(=O)(=O)c3ccc(Cl)cc32)c(OC)c1`, the RP-LC retention time turned out to be 995 s.

`O=C(NCc1ccco1)c1ccc2c(c1)N(Cc1ccc(F)cc1)C(=O)CO2` displayed an RP-LC retention time of 830 s.

`COc1cccc(NC(=O)CCC2CCN(c3cc(NC4CC4)ncn3)CC2)c1` came in with an RP-LC retention time of 674 s.
